Drawing on patent US20220112194A1, “COMPOUNDS TARGETING PRMT5” (ALIGOS THERAPEUTICS, INC., priority 2020, published 2022), this text covers EC50 and IC50 for 26 compounds.

The structures appear in SMILES notation.

One assay concerns HepG2 hepatoma cells. The experiment in a line: Cell proliferation assay HepG2 (CellTiter-Glo, 7 days). Type of assay: cell-based. To be noted: Homo sapiens, 168 h; HepG2, 7 days, cell viability CellTiter-Glo 2.0. How it is done:
(§1) HepG2 hepatoma cells (ATCC, HB-8065) were maintained in DMEM with high glucose (Lonza, 12-914F) supplemented with 10% fetal bovine serum (FBS; Biowest, S181B-500) and 2 mM L-glutamine (Biowest, X0551-100) at 37° C. and 5% CO2. A549 lung carcinoma cells (ATCC, CCL-185) were maintained in F-12K medium (ThermoFisher 21127030) supplemented with 10% FBS at 37° C. and 5% CO2. Exponentially growing HepG2 or A549 were plated in white, clear-bottom 96-well plates (Corning, 3903) at a cell density of 2000 (HepG2) or 350 (A549) cells per well in 199 μL of HepG2 medium. Next, 1 μL of a 5-fold 9-point dilution series of test compound in DMSO was added to the different wells. Cells were incubated at 37° C. 5% CO2 for 7 days. Cell viability was assessed on day 7 with the CellTiter-Glo 2.0 Cell Viability assay kit (Promega, G9243) to quantify the intracellular amounts of ATP: first, 100 μL of cell culture medium was removed from each well, next 100 μL of CellTiter-Glo® 2.0 Reagent was added and plates were shaken for 2 minutes on an orbital shaker. After 10 minutes stabilization at room temperature, read-out was performed on a ThermoFisher VarioSkan Lux plate reader. Counts were normalized to DMSO control (0% inhibition) and the cytotoxic control (100% inhibition) and EC50 values were determined in GraphPad Prism 8 using the [Agonist] vs. response—Variable slope (four parameters) function.
(§2) As shown by the data of Table 2, compounds of Formula (I) have activity in this assay. A value of ‘A’ in the table below indicates an EC50 of <20 nM, a value of ‘B’ indicates an EC50≥20 nM to <100 nM, a value of ‘C’ indicates an EC50 value of EC50≥100 nM to <1000 nM and a value of ‘D’ indicates an EC50≥1000 nM
Background: Cellular ATP, detected with luciferase, serves as a proxy for viable cell number.

The subject of assay [1] is A549 lung carcinoma cells. The experiment in a line: Cell proliferation assay A549 (CellTiter-Glo, 7 days). Type of assay: cell-based. The note with it: Homo sapiens, A549, 168 h, A549, 7 days, cell viability CellTiter-Glo 2.0. On the procedure: as §1, §2
Assay [2] deals with T1, PRMT5/MEP50 (Homo sapiens, UniProt O14744). The assay is described as follows: PRMT5/MEP50 enzyme inhibition assay, Assay 1 (radioisotope filter binding, 3H-SAM, histone H2A). It counts as biochemical. To be noted: 1 μM 3H-SAM, 5 μM histone H2A, 60 min at 30° C. On the procedure:
Compounds were tested for inhibition of methyltransferase activity in a radioisotope filter binding assay, similar to previously described in A selective inhibitor of PRMT5 with in vivo and in vitro potency in MCL models. Chan-Penebre et al., Nat Chem Biol. (2015) 11(6):432-7. In the standard PRMT5/MEP50 enzyme inhibition assay, compounds were tested in a 10-dose IC50 mode with 3- or 5-fold serial dilution, in singlet, starting at 1, 10, or 100 μM. Control compound, SAH (S-(5′-Adenosyl)-L-homocysteine), was tested in 10-dose IC50 mode with 3-fold serial dilution starting at 100 μM. Reactions were carried out at 1 μM 3H-SAM (PerkinElmer) and 5 μM histone H2A as substrates for methyl transfer. Following a 60 min incubation at 30° C., the reaction was stopped with 20% TCA. Each reaction was spotted on a filter plate (MultiScreen FB Filter plate, Millipore) and washed 5 times in PBS, after which scintillation fluid was added and signal was detected in a scintillation counter. Percent enzyme activity was calculated based on no inhibitor DMSO control as 100% activity. EC50 values were determined in GraphPad Prism 8 using the [inhibitor] vs. response—Variable slope (four parameters) function.
(§3) Compounds of Formula (I) show activity in this assay. A value of ‘A’ in the table below indicates an IC50 of <1 nM, a value of ‘B’ indicates an IC50≥1 nM to ≤100 nM, and a value of ‘C’ indicates an IC50 value of >100 nM.

For assay [3], the target named is T1, PRMT5/MEP50. The assay is described as follows: PRMT5/MEP50 enzyme inhibition assay, Assay 2 (384-well, MALDI mass spectrometry, SAM, histone H4 1-21 peptide). Type of assay: biochemical. To be noted: 1 μM SAM, 0.1 μM histone H4 1-21 peptide, 18-hour incubation at rt. How it is done:
Compounds were tested for inhibition of methyltransferase activity in 384-well plate assay format using mass spectrometry technology. In this enzyme inhibition assay, compounds were tested in a 11-dose IC50 mode with 3-serial dilution, in duplicate, starting at 1, 10, or 100 μM. Reactions were carried out at 1 μM SAM and 0.1 μM histone H4 1-21 peptide as substrates for methyl transfer. Following an 18-hour incubation at rt, the reaction was stopped with 0.5% formic acid. Products of the reaction were captured while unreacted substrates were washed away, prior to MALDI mass spectrometry detection and analysis. Percent enzyme activity was calculated based on no inhibitor DMSO control as 100% activity. EC50 values were determined in GraphPad Prism 8 using the [inhibitor] vs. response—Variable slope (four parameters) function.
as §3

Broadly, the EC50 is the concentration that produces a half-maximal response. One may read the IC50 as the concentration that gives 50% inhibition. Low readings indicate greater potency in that assay, high ones weaker potency in that assay.

T1 sequence (O14744 whole entry): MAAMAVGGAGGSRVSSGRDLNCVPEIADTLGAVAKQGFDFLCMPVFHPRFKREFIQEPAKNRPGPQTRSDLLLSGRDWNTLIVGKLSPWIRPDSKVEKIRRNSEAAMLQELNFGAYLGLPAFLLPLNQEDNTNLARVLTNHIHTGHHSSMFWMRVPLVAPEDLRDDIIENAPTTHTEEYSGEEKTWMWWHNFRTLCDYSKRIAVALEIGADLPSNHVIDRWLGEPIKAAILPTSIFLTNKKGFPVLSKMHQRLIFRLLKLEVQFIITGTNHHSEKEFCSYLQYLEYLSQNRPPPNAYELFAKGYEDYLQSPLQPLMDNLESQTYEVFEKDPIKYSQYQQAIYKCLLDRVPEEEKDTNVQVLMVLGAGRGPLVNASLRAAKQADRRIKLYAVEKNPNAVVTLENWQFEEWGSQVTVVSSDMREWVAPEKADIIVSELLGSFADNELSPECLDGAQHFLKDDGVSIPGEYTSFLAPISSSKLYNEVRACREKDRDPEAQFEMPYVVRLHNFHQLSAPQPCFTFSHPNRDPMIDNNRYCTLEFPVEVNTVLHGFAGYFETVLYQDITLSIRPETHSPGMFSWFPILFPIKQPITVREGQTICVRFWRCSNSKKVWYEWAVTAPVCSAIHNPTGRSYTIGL
T1 sequence (Q9BQA1 whole entry partner): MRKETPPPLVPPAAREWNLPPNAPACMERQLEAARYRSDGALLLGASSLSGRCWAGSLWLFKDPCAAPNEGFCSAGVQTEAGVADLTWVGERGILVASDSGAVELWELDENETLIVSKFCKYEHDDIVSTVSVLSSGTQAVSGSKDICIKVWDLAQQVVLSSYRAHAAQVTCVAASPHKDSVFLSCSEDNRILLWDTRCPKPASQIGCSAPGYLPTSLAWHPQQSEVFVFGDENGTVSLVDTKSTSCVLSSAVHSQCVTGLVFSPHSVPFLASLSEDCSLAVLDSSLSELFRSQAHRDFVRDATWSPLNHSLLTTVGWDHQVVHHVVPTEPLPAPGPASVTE

As for `Nc1nc2cc(OC[C@@H]3[C@@H](O)[C@@H](O)[C@]4(n5ccc6c(N)ncnc65)C[C@@H]34)ccc2cc1Br` (racemic) [Compound 17, rac-(2S,3R,4R,5S)-4-[(2-amino-3-bromo-7-quinolyl)oxymethyl]-1-(4-aminopyrrolo[2,3-d]pyrimidin-7-yl)bicyclo[3.1.0]hexane-2,3-diol], the EC50 (with HepG2 hepatoma cells; in assay [1]) was not below 1000 nM in each case.

On to `C[C@]1(CCc2ccc3cc(Br)c(N)nc3c2)C[C@@H](n2ccc3c(N)ncnc32)[C@H](O)[C@@H]1O` [Compound 1], for which the IC50 at PRMT5/MEP50 [2] and on PRMT5/MEP50 [3] was less than 1 nM throughout.

On to `Nc1nc2cc(CC[C@@]34C[C@@H]3[C@@H](n3ccc5c(N)ncnc53)[C@H](O)[C@@H]4O)ccc2cc1Br` [Compound 2], for which the IC50 on PRMT5/MEP50 [2] and against PRMT5/MEP50 [3] was less than 1 nM throughout. In addition, the EC50 (with HepG2 hepatoma cells; in assay [1]) was less than 20 nM throughout.

Turning to `C=C1[C@@H](n2ccc3c(N)ncnc32)[C@H](O)[C@H](O)[C@H]1CCc1ccc2cc(Br)c(Cl)nc2c1` [Compound 3], the IC50 on PRMT5/MEP50 [2] and against PRMT5/MEP50 [3] was more than 100 nM each time. For the same compound, the EC50 (with HepG2 hepatoma cells; in assay [1]) was 100 to 1000 nM each time.

As to `C=C1[C@@H](n2ccc3c(N)ncnc32)[C@H](O)[C@H](O)[C@H]1CCc1ccc2cc(Br)c(N)nc2c1` [Compound 4], the IC50 at PRMT5/MEP50 [2] and at PRMT5/MEP50 [3] was less than 1 nM in each case. For the same compound, the EC50 (with HepG2 hepatoma cells; in assay [1]) was less than 20 nM in each case.

Take `C[C@H]1[C@H](CCc2ccc3ccc(N)nc3c2)[C@@H](O)[C@@H](O)[C@@H]1n1ccc2c(N)ncnc21` [Compound 5]: the IC50 on PRMT5/MEP50 [2] and at PRMT5/MEP50 [3] was less than 1 nM in each case. In addition, the 50% effective concentration (EC50) (in the assay with HepG2 hepatoma cells; in assay [1]) was 100 to 1000 nM each time.

Compound `Cc1cnc2cc(OC[C@@]34C[C@@H]3[C@@H](n3ccc5c(N)ncnc53)[C@H](O)[C@@H]4O)ccn12` [Compound 16] gave an IC50 against PRMT5/MEP50 [3] of less than 1 nM. The EC50 (in the assay on HepG2 hepatoma cells; in assay [1]) was not below 1000 nM throughout.

In turn, `C[C@]1(CCc2ccc3cc(Cl)c(N)nc3c2)C[C@@H](n2ccc3c(N)ncnc32)[C@H](O)[C@@H]1O` [Compound 18] showed a 50% inhibitory concentration (IC50) at PRMT5/MEP50 [3] of less than 1 nM. The EC50 (in the assay on HepG2 hepatoma cells; in assay [1]) was less than 20 nM in each case.

As for `C[C@]1(CCc2ccc3cc(C(F)F)c(N)nc3c2)C[C@@H](n2ccc3c(N)ncnc32)[C@H](O)[C@@H]1O` [Compound 23], at PRMT5/MEP50 [3], the 50% inhibitory concentration (IC50) is less than 1 nM. In addition, the EC50 (in the assay on HepG2 hepatoma cells; in assay [1]) was less than 20 nM in each case.

Turning to `C[C@]1(CCc2ccc3ccc(N)nc3n2)C[C@@H](n2ccc3c(N)ncnc32)[C@H](O)[C@@H]1O` [Compound 24], the 50% inhibitory concentration (IC50) at PRMT5/MEP50 [3] was less than 1 nM. For the same compound, the EC50 (in the assay on HepG2 hepatoma cells; in assay [1]) was 20 to 100 nM throughout.

On PRMT5/MEP50 [3], `CC(C)C(=O)O[C@H]1[C@H](n2ccc3c(N)ncnc32)C[C@](C)(CCc2ccc3nc(N)ccc3c2)[C@H]1OC(=O)C(C)C` [Compound 26-A] returned an IC50 of more than 100 nM. Further, the EC50 (with HepG2 hepatoma cells; in assay [1]) was not below 1000 nM each time.

`C[C@]1(CCc2ccc3cc(C#N)c(N)nc3c2)C[C@@H](n2ccc3c(N)ncnc32)[C@H](O)[C@@H]1O` [Compound 27] registered an IC50 against PRMT5/MEP50 [3] of less than 1 nM. The EC50 (in the assay with HepG2 hepatoma cells; in assay [1]) was 20 to 100 nM throughout.

Consider `C[C@]1(CCc2ccc3cc(Cl)c(N)nc3c2)C[C@@H](n2ccc3c(N)ncnc32)[C@H](O)[C@]1(C)O` [Compound 28], for which the IC50 against PRMT5/MEP50 [3] is less than 1 nM. Moreover, the concentration giving a half-maximal response (EC50) lay within 20 to 100 nM in the assay on HepG2 hepatoma cells and 100 to 1000 nM in assay [1].

On to `Cn1c(N)nc2cc(CC[C@@]3(C)C[C@@H](n4ccc5c(N)ncnc54)[C@H](O)[C@@H]3O)ccc2c1=O` [Compound 29], for which, on PRMT5/MEP50 [3], the IC50 was less than 1 nM. For the same compound, the values for the EC50 (in the assay on HepG2 hepatoma cells; in assay [1]) were less than 20 nM and 20 to 100 nM, respectively.

As for `C[C@]1(CCc2cc(F)c3cc(Cl)c(N)nc3c2)C[C@@H](n2ccc3c(N)ncc(F)c32)[C@H](O)[C@@H]1O` [Compound 34, (1S,2R,3S,5R)-3-[2-(2-amino-3-chloro-5-fluoro-7-quinolyl)ethyl]-5-(4-amino-7-fluoro-pyrrolo[3,2-c]pyridin-1-yl)-3-methyl-cyclopentane-1,2-diol], at PRMT5/MEP50 [3], the IC50 is less than 1 nM.

`Nc1ccc2ccc(CC[C@@]3(F)C[C@@H](n4ccc5c(N)ncnc54)[C@H](O)[C@@H]3O)cc2n1` [Compound 35, (1S,2S,3R,5R)-5-(4-amino-7H-pyrrolo[2,3-d]pyrimidin-7-yl)-3-(2-(2-aminoquinolin-7-yl)ethyl)-3-fluorocyclopentane-1,2-diol]: the IC50 against PRMT5/MEP50 [3] was less than 1 nM.

As to `C[C@]1(CCc2cc(F)c3ccc(N)nc3c2)C[C@@H](n2ccc3c(N)ncc(F)c32)[C@H](O)[C@@H]1O` [Compound 42, (1S,2R,3S,5R)-3-(2-(2-amino-5-fluoroquinolin-7-yl)ethyl)-5-(4-amino-7-fluoro-1H-pyrrolo[3,2-c]pyridin-1-yl)-3-methylcyclopentane-1,2-diol], the IC50 against PRMT5/MEP50 [3] is less than 1 nM.

`C[C@]1(CCc2ccc3cc(Br)c(N)nc3c2)C[C@@H](n2ccc3c(N)ncc(F)c32)[C@H](O)[C@@H]1O` [Compound 50]: at PRMT5/MEP50 [3], the IC50 is less than 1 nM. Moreover, the concentration giving a half-maximal response (EC50) (in the assay on HepG2 hepatoma cells; in assay [1]) was less than 20 nM each time.

Take `C[C@]1(CCc2cc(F)c3cc(Cl)c(N)nc3c2)C[C@@H](n2ccc3c(N)nc(Cl)nc32)[C@H](O)[C@@H]1O` [Compound 53]: on PRMT5/MEP50 [3], the IC50 was less than 1 nM. In addition, the EC50 (in the assay with HepG2 hepatoma cells; in assay [1]) was less than 20 nM each time.

`CCCCCOC(=O)Nc1ccc2ccc(CC[C@@]3(C)C[C@@H](c4ccc5c(N)ncnn45)[C@H](O)[C@@H]3O)cc2n1` [Compound 55]: the IC50 against PRMT5/MEP50 [3] is more than 100 nM. The EC50 (in the assay with HepG2 hepatoma cells; in assay [1]) was 20 to 100 nM throughout.

`C[C@]1(CCc2cc(F)c3cc(Cl)c(N)nc3c2)C[C@@H](c2ccc3c(N)ncnn23)[C@H](O)[C@@H]1O` [Compound 57]: the EC50 (in the assay with HepG2 hepatoma cells; in assay [1]) was less than 20 nM each time.

For the compound `COC[C@]1(CCc2ccc3cc(Br)c(N)nc3c2)C[C@@H](n2ccc3c(N)ncnc32)[C@H](O)[C@@H]1O` [Compound 58], the EC50 (with HepG2 hepatoma cells; in assay [1]) was less than 20 nM each time.

On PRMT5/MEP50 [3], `C[C@]1(CCc2ccc3cc(Br)c(N)nc3c2)C[C@@H](c2ccc3c(N)ncnn23)[C@H](O)[C@@H]1O` [Compound 59] yielded an IC50 of less than 1 nM. Also, the EC50 (in the assay with HepG2 hepatoma cells; in assay [1]) was less than 20 nM in each case.

Compound `C=C[C@]1(CCc2ccc3cc(Br)c(N)nc3c2)C[C@@H](n2ccc3c(N)ncnc32)[C@H](O)[C@@H]1O` [Compound 62] returned a concentration for a half-maximal effect (EC50) in assay [1] of less than 20 nM.

Take `C#C[C@]1(CCc2ccc3cc(Br)c(N)nc3c2)C[C@@H](n2ccc3c(N)ncnc32)[C@H](O)[C@@H]1O` [Compound 63]: the EC50 in assay [1] was less than 20 nM.

With `COC[C@]1(CCc2cc(F)c3cc(Cl)c(N)nc3c2)C[C@@H](c2ccc3c(N)ncnn23)[C@H](O)[C@@H]1O` [Compound 64], the EC50 in assay [1] was less than 20 nM.
